Results from patent US9458137B2, “Substituted indol-5-ol derivatives and their therapeutical applications” (NantBioScience, Inc., priority 2012, dated 2016).

Legend:
[1] = system: human tumor cell lines of the cancer screening panel; test: in vitro antiproliferation, NCI 60 cancer cell line panel (SRB); type: cell-based; conditions: 48 h
Description: NTW-3475 was also tested for its antiproliferative potential using cell lines from the NCI 60 cancer cell line panel.
The human tumor cell lines of the cancer screening panel are grown in RPMI 1640 medium containing 5% fetal bovine serum and 2 mM L-glutamine. For a typical screening experiment, cells are inoculated into 96 well microtiter plates in 100 μL at plating densities ranging from 5,000 to 40,000 cells/well depending on the doubling time of individual cell lines. After cell inoculation, the microtiter plates are incubated at 37° C., 5% CO2, 95% air and 100% relative humidity for 24 h prior to addition of experimental drugs. […]
Following drug addition, the plates are incubated for an additional 48 h at 37° C., 5% CO2, 95% air, and 100% relative humidity. […] Bound stain is subsequently solubilized with 10 mM trizma base, and the absorbance is read on an automated plate reader at a wavelength of 515 nm. […] Using the seven absorbance measurements [time zero, (Tz), control growth, (C), and test growth in the presence of drug at the five concentration levels (Ti)], the percentage growth is calculated at each of the drug concentrations levels. Percentage growth inhibition is calculated as: [(Ti-Tz)/(C-Tz)]×100 for concentrations for which Ti>/=Tz [(Ti-Tz)/Tz]×100 for concentrations for which Ti<Tz.
Three dose response parameters are calculated for each experimental agent. […]

[2] = system: human MV411 human acute myelogenous leukemia (AML) xenograft; type: in vivo, SCID mice; conditions: various concentrations; scid mouse, MV411 cells
Description: The objective of the first study was to evaluate antitumor activities of the novel multiple-kinase inhibitor NTW-3475 against human MV411 human acute myelogenous leukemia (AML) xenograft model in female SCID mice.
Four or six animals were randomly assigned to each study group. Each animal was injected subcutaneously in the left and right flank area with 0.1 ml of 1.0×10^8 MV411 cells per mL
(§1) Each test or control animal was placed on a 5-day on, two-day off for two cycles of vehicle negative control or 25, 50 mg/kg of NTW-3475. Tumor growth was measured with a digital hand held caliper twice weekly (once tumor emerges) prior to the first dosing and then two to three times weekly until euthanized. Animals were weighed prior to tumor cell injection, prior to dosing, two to three times weekly with tumor growth measurements, and prior to euthanasia.
FIGS. 27-32 depict the results of various concentrations of NTW-3456 on tumor growth in scid mouse/xenograft model of AML using MV411 cells. […] This invention is characterized as it is here was a correlation between the inhibition of the pFLT3 kinase and growth control.

[3] = system: human K562 chronic myelogenous leukemia (CML) xenograft; test: K562 CML xenograft model; type: in vivo, SCID mice; conditions: various concentrations; scid mouse, K562 cells
Description: The objective of the second study was to evaluate antitumor activities of novel multiple-kinase inhibitor NTW-3475 in human K562 chronic myelogenous leukemia (CML) xenograft model in female SCID mice.
Four to six animals were randomly assigned to study groups. Each animal was weighed, and then injected subcutaneously in the left and right flank area with 0.1 ml of 8.0×10^7 K562 cells per mL.
as §1, with “was” for “was placed”, “treatment schedule.” for “of vehicle negative control or 25, 50 mg/kg of NTW-3475.”
FIGS. 34 and 35 depict the results of various concentrations of NTW-3456 on a scid mouse/xenograft model of CML using K562 cells.

[4] = system: human MIAPaCa-2 pancreatic carcinoma xenograft; test: MIAPaCa-2 pancreatic carcinoma xenograft; type: in vivo, athymic nude-Faxn1 mice
Description: The objective of the third study was to evaluate antitumor activities of novel multiple-kinase inhibitor NTW-3475 in human MIAPaCa-2 pancreatic carcinoma xenograft in athymic nude-Faxn1 mice.
Four animals were randomly assigned to study groups. Each animal was weighed, and then injected subcutaneously in the left and right flank area with 0.1 ml of 5.0×10^7 MIAPaCa-2 cells per mL.
Each test or control animal was on a 5-day on, two-day off for two cycles treatment schedule with negative control vehicle, positive control Abraxane at 20 mg/kg or 25, 50 mg/kg of NTW-3475. Tumor growth was measured with a digital hand held caliper twice weekly (once tumor emerges) prior to the first dosing and then two to three times weekly until euthanized.
FIGS. 42-44 depict the results of various concentrations of NTW-3456 on a nude mouse/xenograft the MIAPaCa-2 model of pancreatic carcinoma.
FIGS. 45 and 46 depict the results of various concentrations of NTW-3456, with or without Abraxane on a MiaPaCa-2 model of pancreatic carcinoma.

[5] = system: TT human Thyroid carcinoma xenograft; test: TT thyroid carcinoma xenograft; type: in vivo, nude mouse; conditions: various concentrations; nude mouse, TT cell model
Excerpt: (§2) This example assesses NTW-3475's anti-tumor activity using a scid mouse xenograft models for leukemias and nude mouse xenograft models of endometrial, pancreatic and thyroid carcinomas. NTW-3475 combination therapy was also studied in murine xenografts.
FIGS. 36-38 depict the results of various concentrations of NTW-3456 on a nude mouse/xenograft the TT cell model of thyroid carcinoma.

[6] = system: AN3 human endometrial carcinoma carcinoma xenograft; test: AN3 endometrial carcinoma xenograft; type: in vivo, nude mouse; conditions: various concentrations; AN3 nude mouse model
Excerpt: as §2
FIGS. 39-41 depict the results of various concentrations of NTW-3456 on the AN3 nude mouse/xenograft model of endometrial carcinoma.

abl T315I mutant = abl T315I mutant (Homo sapiens, UniProt P00519, T315I); test: kinase activity in abl mutants; type: biochemical
Excerpt: The first study was designed to assess the effect of NTW-3456 on kinase activity. Activity of NTW-3456 for a wide range of kinases and is shown FIGS. 22-24, including mutant kinases thought to play a large role in neoplastic transformation (FIGS. 23 and 24). In addition, NTW-3456 inhibited kinase activity in abl mutants for which no prior inhibitors have been FDA approved. In particular, NTW-3456 inhibits the 2 T315I mutant for which no kinase inhibitor had been known prior to NTW-3456.

[7] = system: FLT3 phosphorylation (pFLT3) of MV4-11 tumors; test: FLT3 phosphorylation in MV4-11 tumor xenografts; type: in vivo, SCID mice; conditions: 24 hour after single oral 50 mg/kg
Description: (§3) The mice carrying the established MV4-11 tumor xenografts (tumor volume around 150 mm^3) were given an oral dose of 50 mg/kg NTW-3456. At 0, 1, 2, 8, 16, 24 hours after dosing, three were euthanized. The blood samples were collected and plasma was prepared with centrifuge for LCMS assay. And the tumors were harvested, homogenized in lysis buffer, immunoprecipitated with anti-FLT3 antibody FIG. 33.
(§4) The curve (solid dot) is the plot of plasma concentration-time profiles of NTW-3456 after oral administration of 50 mg/kg.

[8] = plasma concentration after oral administration (LCMS); type: in vivo, SCID mice; conditions: 24 hour after single oral 50 mg/kg; mice with MV4-11 tumor xenografts
Description: as §3, §4

[9] = system: Pane-1 model of pancreatic carcinoma; test: Panc-1 pancreatic carcinoma xenograft; type: in vivo; conditions: with or without Abraxane
Excerpt: FIGS. 48 and 49 depict the results of various concentrations of NTW-3456, with or without Abraxane on a Pane-1 model of pancreatic carcinoma.

Q: Which results are given for C/C=C/c1cc(Nc2cc(N3CCN(C)CC3)nc(Oc3cc(F)c4[nH]c(C)cc4c3F)n2)n[nH]1 [NTW-3456]?
A: antiproliferative activity [1]: seen against AML, CML, thyroid, enodmetrial, gastric, breast, and some pancreatic carcinoma cell lines; anti-tumor activity [2]: significant anti-tumor activity, especially at higher doses; anti-tumor activity [3]: significant anti-tumor activity, especially at higher doses; anti-tumor activity ([4]; various concentrations, single agent, nude mouse): some anti-tumor activity; anti-tumor activity ([4]; with or without Abraxane): significant anti-tumor activity, especially when used in combination with Abraxane; anti-tumor activity [5]: significant anti-tumor activity, especially at higher doses; anti-tumor activity [6]: significant anti-tumor activity, especially at higher doses; inhibition of kinase activity (abl T315I mutant): inhibits; inhibition of FLT3 phosphorylation of MV4-11 tumor [7]: more than 60%; plasma concentration [8]: 7 nM; anti-tumor activity [9]: significant anti-tumor activity, especially when used in combination with Abraxane
